Measured values from patent US7915303B2, “Glycopyrronium salts and their therapeutic use” (priority 2005, dated 2011).

Columns and labels:
Assay type in all cases: physicochemical
[1] = Glass transition temperature by differential scanning calorimetry (DSC); conditions: for glass transition temperature (Tg) compared with glycopyrronium bromide: comparison with glycopyrronium bromide (1)
[2] = Characterisation of moisture sorption (hygroscopicity) of the amorphous form; conditions: sorption of moisture at low relative humidity
From the text: Part of the development of glycopyrronium bromide involves milling of the active substance down to a particle size suitable for use in a dry powder inhalation formulation. […] This material becomes sticky upon sorption of moisture at low relative humidity (RH), and then finally crystallises to a non-hygoscopic hard crystalline substance.
The amorphous form of glycopyrronium iodide (2), for example, can be formed by physical techniques such as spray drying or lyophylisation and its sorption behaviour studied by dynamic vapour sorption (DVS) varying RH over time.

[3] = TG-FTIR thermal stability (weight loss / degradation)

Molecule	glass transition temperature (Tg) ([1]; amorphous material, determined by DSC)	hygroscopicity of the amorphous form [2]	glass transition temperature (Tg) compared with glycopyrronium bromide [1]	TG-FTIR weight loss / degradation [3]	Tg (glass transition) ([1]; lyophilized material, DSC second scan)
C[N+]1(C)CCC(OC(=O)C(O)(c2ccccc2)C2CCCC2)C1 (stereo not drawn) [glycopyrronium bromide, reference compound]	64.9 °C	highly hygroscopic			
Glycopyrronium Acetate			lower glass transition temperature (Tg) than glycopyrronium bromide	no significant weight loss below 200° C., degrades above this temperature	
Glycopyrronium Iodide			lower glass transition temperature (Tg) than glycopyrronium bromide	no significant weight loss below 200° C., degrades above this temperature	55 °C
Glycopyrronium Sulphate			lower glass transition temperature (Tg) than glycopyrronium bromide	no significant weight loss below 200° C., degrades above this temperature	
